{"source": "patent US10913727B2", "about": "“Modulators of the integrated stress pathway” (Calico Life Sciences LLC, priority 2016, dated 2021)", "data": [{"test_system": "HEK293T cells carrying the ATF4 luciferase reporter", "assay": "ATF4-Luc assay, in vitro model of Vanishing Cell White Matter Disease (VWMD)", "format": "cell-based", "details": "Homo sapiens, HEK-293T, 1 μg/mL tunicamycin, 7 hours, One Glo luminescence", "outline": "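Reporter cells were stably generated by retroviral transduction and puromycin selection, then seeded at 30,000 cells/well. Next day, cells received 1 μg/mL tunicamycin with 200 nM test compound for 7 h, and luciferase luminescence was read with a one-step reagent. Values reported as EC50.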", "units": {"EC50": "nM"}, "values": [{"compound": "Cc1ccc(C(=O)NC23CCC(NC(=O)COc4ccc(Cl)c(F)c4)(CC2)CC3O)nc1", "note": "(stereo not drawn) [Compound 169, N-{4-[2-(4-chloro-3-fluorophenoxy)acetamido]-2-hydroxybicyclo[2.2.2]octan-1-yl}-5-methylpyridine-2-carboxamide]", "EC50": "50 to 250"}, {"compound": "CC(C)(C)c1cc(C(=O)NC23CCC(NC(=O)COc4ccc(Cl)c(F)c4)(CC2)[C@@H](O)C3)on1", "note": "[Compound 581, 3-tert-butyl-N-{(3S)-4-[2-(4-chloro-3-fluorophenoxy)acetamido]-3-hydroxybicyclo[2.2.2]octan-1-yl}-1,2-oxazole-5-carboxamide]", "EC50": "< 50"}, {"compound": "CS(=O)(=O)c1cccc(C(=O)NC23CC(NC(=O)COc4ccc(Cl)c(F)c4)(C2)C3)c1", "note": "[Compound 813, N-{3-[2-(4-chloro-3-fluorophenoxy)acetamido]bicyclo[1.1.1]pentan-1-yl}-3-(methanesulfonyl)benzamide]", "EC50": "> 2000"}, {"compound": "Cc1cc(C(=O)NC23CC(NC(=O)COc4ccc(Cl)c(Cl)c4)(C2)C3)n(CC(C)(C)O)n1", "note": "[Compound 460, N-{3-[2-(3,4-dichlorophenoxy)acetamido]bicyclo[1.1.1]pentan-1-yl}-1-(2-hydroxy-2-methylpropyl)-3-methyl-1H-pyrazole-5-carboxamide]", "EC50": "> 2000"}, {"compound": "CN(CC1CCC1)c1cnc(C(=O)NC23CC(NC(=O)COc4ccc(Cl)c(F)c4)(C2)C3)cn1", "note": "[Compound 420, N-{3-[2-(4-chloro-3-fluorophenoxy)acetamido]bicyclo[1.1.1]pentan-1-yl}-5-[(cyclobutylmethyl)(methyl)amino]pyrazine-2-carboxamide]", "EC50": "> 2000"}, {"compound": "O=C(COc1ccc(Cl)c(F)c1)NC12CCC(NC(=O)c3ccc(OC(F)(F)F)cn3)(CC1)CC2O", "note": "(stereo not drawn) [Compound 480, N-{4-[2-(4-chloro-3-fluorophenoxy)acetamido]-3-hydroxybicyclo[2.2.2]octan-1-yl}-5-(trifluoromethoxy)pyridine-2-carboxamide]", "EC50": "< 50"}, {"compound": "O=C(COc1ccc(Cl)c(F)c1)NC12CC(NC(=O)c3c(F)cccc3F)(C1)C2", "note": "[Compound 512, N-{3-[2-(4-chloro-3-fluorophenoxy)acetamido]bicyclo[1.1.1]pentan-1-yl}-2,6-difluorobenzamide]", "EC50": "> 2000"}, {"compound": "O=C(COc1ccc(Cl)c(F)c1)NC12CC(NC(=O)c3ccccc3-n3cncn3)(C1)C2", "note": "[Compound 862, N-{3-[2-(4-chloro-3-fluorophenoxy)acetamido]bicyclo[1.1.1]pentan-1-yl}-2-(1H-1,2,4-triazol-1-yl)benzamide]", "EC50": "> 2000"}, {"compound": "N#Cc1ccc(C(=O)NC23CC(NC(=O)COc4ccc(Cl)c(F)c4)(C2)C3)nc1", "note": "[Compound 173, N-{3-[2-(4-chloro-3-fluorophenoxy)acetamido]bicyclo[1.1.1]pentan-1-yl}-5-cyanopyridine-2-carboxamide]", "EC50": "50 to 250"}, {"compound": "Cc1noc(C(=O)NC23CCC(NC(=O)COc4ccc(Cl)c(F)c4)(CC2)[C@@H](O)C3)n1", "note": "[Compound 575, N-{(3S)-4-[2-(4-chloro-3-fluorophenoxy)acetamido]-3-hydroxybicyclo[2.2.2]octan-1-yl}-3-methyl-1,2,4-oxadiazole-5-carboxamide]", "EC50": "< 50"}, {"compound": "O=C(COc1ccc(Cl)c(F)c1)NC12CC(Nc3cc(-c4ccc(Cl)cc4)ccn3)(C1)C2", "note": "[Compound 415, 2-(4-chloro-3-fluorophenoxy)-N-(3-{[4-(4-chlorophenyl)pyridin-2-yl]amino}bicyclo[1.1.1]pentan-1-yl)acetamide]", "EC50": "> 2000"}, {"compound": "O=C(COc1ccc(Cl)c(Cl)c1)NC12CC(NC(=O)c3cnc(C(F)(F)F)s3)(C1)C2", "note": "[Compound 646, N-{3-[2-(3,4-dichlorophenoxy)acetamido]bicyclo[1.1.1]pentan-1-yl}-2-(trifluoromethyl)-1,3-thiazole-5-carboxamide]", "EC50": "50 to 250"}, {"compound": "O=C(COc1ccc(Cl)c(F)c1)NC12CC(NC(=O)c3ccncc3F)(C1)C2", "note": "[Compound 817, N-{3-[2-(4-chloro-3-fluorophenoxy)acetamido]bicyclo[1.1.1]pentan-1-yl}-3-fluoropyridine-4-carboxamide]", "EC50": "> 2000"}, {"compound": "CN(C)CCOc1ccccc1C(=O)NC12CC(NC(=O)COc3ccc(Cl)c(F)c3)(C1)C2", "note": "[Compound 549, N-{3-[2-(4-chloro-3-fluorophenoxy)acetamido]bicyclo[1.1.1]pentan-1-yl}-2-[2-(dimethylamino)ethoxy]benzamide]", "EC50": "> 2000"}, {"compound": "Cc1nc(C)c(C(=O)NC23CC(NC(=O)COc4ccc(Cl)c(F)c4)(C2)C3)s1", "note": "[Compound 238, N-{3-[2-(4-chloro-3-fluorophenoxy)acetamido]bicyclo[1.1.1]pentan-1-yl}-2,4-dimethyl-1,3-thiazole-5-carboxamide]", "EC50": "50 to 250"}, {"compound": "Cn1nc(C(F)(F)F)cc1C(=O)NC12CC(NC(=O)COc3ccc(Cl)c(F)c3)(C1)C2", "note": "[Compound 582, N-{3-[2-(4-chloro-3-fluorophenoxy)acetamido]bicyclo[1.1.1]pentan-1-yl}-1-methyl-3-(trifluoromethyl)-1H-pyrazole-5-carboxamide]", "EC50": "50 to 250"}, {"compound": "CCc1cc(C(=O)NC23CCC(NC(=O)COc4ccc(Cl)c(Cl)c4)(CC2)[C@@H](O)C3)on1", "note": "[Compound 694, N-{(3S)-4-[2-(3,4-dichlorophenoxy)acetamido]-3-hydroxybicyclo[2.2.2]octan-1-yl}-3-ethyl-1,2-oxazole-5-carboxamide]", "EC50": "< 50"}, {"compound": "NC(=O)c1nccnc1C(=O)NC12CC(NC(=O)COc3ccc(Cl)c(F)c3)(C1)C2", "note": "[Compound 853, N-2-{3-[2-(4-chloro-3-fluorophenoxy)acetamido]bicyclo[1.1.1]pentan-1-yl}pyrazine-2,3-dicarboxamide]", "EC50": "> 2000"}, {"compound": "Cc1cnc(C(=O)NC23CCC(NC(=O)COc4ccc5c(c4)OC(F)(F)O5)(CC2)[C@@H](O)C3)cn1", "note": "[Compound 638, N-[(3S)-4-{2-[(2,2-difluoro-2H-1,3-benzodioxol-5-yl)oxy]acetamido}-3-hydroxybicyclo[2.2.2]octan-1-yl]-5-methylpyrazine-2-carboxamide]", "EC50": "250 to 1000"}, {"compound": "Cc1nnc2c(NC34CC(NC(=O)COc5ccc(Cl)c(F)c5)(C3)C4)nccn12", "note": "[Compound 465, 2-(4-chloro-3-fluorophenoxy)-N-{3-[(3-methyl[1,2,4]triazolo[4,3-a]pyrazin-8-yl)amino]bicyclo[1.1.1]pentan-1-yl}acetamide]", "EC50": "> 2000"}, {"compound": "CCOC(=O)c1cc(C(=O)NC23CC(NC(=O)COc4ccc(Cl)c(F)c4)(C2)C3)ccn1", "note": "[Compound 279, ethyl 4-({3-[2-(4-chloro-3-fluorophenoxy)acetamido]bicyclo[1.1.1]pentan-1-yl}carbamoyl)pyridine-2-carboxylate]", "EC50": "250 to 1000"}, {"compound": "Cc1nc(C(=O)NC23CCC(NC(=O)COc4ccc(Cl)c(F)c4)(CC2)C(O)C3)ccc1F", "note": "(stereo not drawn) [Compound 917, N-{4-[2-(4-chloro-3-fluorophenoxy)acetamido]-3-hydroxybicyclo[2.2.2]octan-1-yl}-5-fluoro-6-methylpyridine-2-carboxamide]", "EC50": "50 to 250"}, {"compound": "Cc1cc(C(=O)NC23CC(NC(=O)COc4ccc(Cl)c(F)c4)(C2)C3)c(C)o1", "note": "[Compound 537, N-{3-[2-(4-chloro-3-fluorophenoxy)acetamido]bicyclo[1.1.1]pentan-1-yl}-2,5-dimethylfuran-3-carboxamide]", "EC50": "250 to 1000"}, {"compound": "O=C(COc1ccc(Cl)c(F)c1)NC12CC(NC(=O)c3csc(-c4ccccc4)n3)(C1)C2", "note": "[Compound 339, N-{3-[2-(4-chloro-3-fluorophenoxy)acetamido]bicyclo[1.1.1]pentan-1-yl}-2-phenyl-1,3-thiazole-4-carboxamide]", "EC50": "< 50"}, {"compound": "O=C(COc1ccc(Cl)c(F)c1)NC12CC(NC(=O)c3cn4cccnc4n3)(C1)C2", "note": "[Compound 772, N-{3-[2-(4-chloro-3-fluorophenoxy)acetamido]bicyclo[1.1.1]pentan-1-yl}imidazo[1,2-a]pyrimidine-2-carboxamide]", "EC50": "> 2000"}, {"compound": "Cc1cnoc1C(=O)NC12CC(NC(=O)COc3ccc(Cl)c(F)c3)(C1)C2", "note": "[Compound 367, N-{3-[2-(4-chloro-3-fluorophenoxy)acetamido]bicyclo[1.1.1]pentan-1-yl}-4-methyl-1,2-oxazole-5-carboxamide]", "EC50": "> 2000"}, {"compound": "O=C(COc1ccc(Cl)c(F)c1)NC12CC(NC(=O)c3ncc(F)cc3F)(C1)C2", "note": "[Compound 910, N-{3-[2-(4-chloro-3-fluorophenoxy)acetamido]bicyclo[1.1.1]pentan-1-yl}-3,5-difluoropyridine-2-carboxamide]", "EC50": "50 to 250"}, {"compound": "Cc1oncc1C(=O)NC12CCC(NC(=O)COc3ccc(Cl)c(F)c3)(CC1)C(O)C2", "note": "(stereo not drawn) [Compound 604, N-{4-[2-(4-chloro-3-fluorophenoxy)acetamido]-3-hydroxybicyclo[2.2.2]octan-1-yl}-5-methyl-1,2-oxazole-4-carboxamide]", "EC50": "> 2000"}, {"compound": "O=C(COc1ccc(Cl)c(F)c1)NC12CCC(NC(=O)c3ccno3)(CC1)CC2O", "note": "(stereo not drawn) [Compound 628, N-{4-[2-(4-chloro-3-fluorophenoxy)acetamido]-3-hydroxybicyclo[2.2.2]octan-1-yl}-1,2-oxazole-5-carboxamide]", "EC50": "250 to 1000"}, {"compound": "O=C(COc1ccc(Cl)c(F)c1)NC12CC(NC(=O)c3ccc(OC(F)(F)F)cn3)(C1)C2", "note": "[Compound 117, N-{3-[2-(4-chloro-3-fluorophenoxy)acetamido]bicyclo[1.1.1]pentan-1-yl}-5-(trifluoromethoxy)pyridine-2-carboxamide]", "EC50": "< 50"}, {"compound": "Cc1cc(C(=O)N(C)C23CCC(NC(=O)COc4ccc(Cl)c(F)c4)(CC2)[C@@H](O)C3)on1", "note": "[Compound 706, N-{(3S)-4-[2-(4-chloro-3-fluorophenoxy)acetamido]-3-hydroxybicyclo[2.2.2]octan-1-yl}-N,3-dimethyl-1,2-oxazole-5-carboxamide]", "EC50": "< 50"}, {"compound": "Cc1cccnc1C(=O)NC12CC(NC(=O)COc3ccc(Cl)c(Cl)c3)(C1)C2", "note": "[Compound 739, N-{3-[2-(3,4-dichlorophenoxy)acetamido]bicyclo[1.1.1]pentan-1-yl}-3-methylpyridine-2-carboxamide]", "EC50": "> 2000"}, {"compound": "O=C(COc1ccc(Cl)c(F)c1)NC12CC(Nc3nccn4cnnc34)(C1)C2", "note": "[Compound 445, 2-(4-chloro-3-fluorophenoxy)-N-{3-[([1,2,4]triazolo[4,3-a]pyrazin-8-yl)amino]bicyclo[1.1.1]pentan-1-yl}acetamide]", "EC50": "> 2000"}]}]}
